In US5464861A, “2-thioindoles (selenoindoles) and related disulfides (selenides) which inhibit protein tyrosine kinases and which have antitumor properties” (Warner-Lambert, priority 1993, dated 1995):

Biological target: T1, epidermal growth factor receptor tyrosine kinase (Homo sapiens, UniProt P00533)
T1 construct: A native 170,000 epidermal growth factor receptor-kinase complex from shed plasma membrane vesicles; endogenous in cells
Assay: EGF receptor tyrosine kinase assay (P^32 incorporation in GAT)
Type: biochemical
Settings: for IC50: Table 2, EGRF-R, IC50 entries, read-out: IC50 (EGFR TK); for inhibition at 100 µM: EGRF-R, read-out: % Inhibition at 100 μM (EGFR TK)
Experimental: At the time of assay, membranes were solubilized in 4% Triton X-100 and glycerol. The reaction is carried out in wells of a 96-well microtiter plate in a total volume of […]. Buffer containing 20 mMHepes (pH 7.4), 15 mMMgCl2, mM MnCl2, and 0.02% BSA followed by […] of membrane protein and 150 ng of epidermal growth factor. The plates are incubated for 10 minutes at room temperature to activate the receptor kinase. […] ATP plus or minus compound are added and incubated 10 minutes at room temperature.

T1 sequence (P00533 25-1210): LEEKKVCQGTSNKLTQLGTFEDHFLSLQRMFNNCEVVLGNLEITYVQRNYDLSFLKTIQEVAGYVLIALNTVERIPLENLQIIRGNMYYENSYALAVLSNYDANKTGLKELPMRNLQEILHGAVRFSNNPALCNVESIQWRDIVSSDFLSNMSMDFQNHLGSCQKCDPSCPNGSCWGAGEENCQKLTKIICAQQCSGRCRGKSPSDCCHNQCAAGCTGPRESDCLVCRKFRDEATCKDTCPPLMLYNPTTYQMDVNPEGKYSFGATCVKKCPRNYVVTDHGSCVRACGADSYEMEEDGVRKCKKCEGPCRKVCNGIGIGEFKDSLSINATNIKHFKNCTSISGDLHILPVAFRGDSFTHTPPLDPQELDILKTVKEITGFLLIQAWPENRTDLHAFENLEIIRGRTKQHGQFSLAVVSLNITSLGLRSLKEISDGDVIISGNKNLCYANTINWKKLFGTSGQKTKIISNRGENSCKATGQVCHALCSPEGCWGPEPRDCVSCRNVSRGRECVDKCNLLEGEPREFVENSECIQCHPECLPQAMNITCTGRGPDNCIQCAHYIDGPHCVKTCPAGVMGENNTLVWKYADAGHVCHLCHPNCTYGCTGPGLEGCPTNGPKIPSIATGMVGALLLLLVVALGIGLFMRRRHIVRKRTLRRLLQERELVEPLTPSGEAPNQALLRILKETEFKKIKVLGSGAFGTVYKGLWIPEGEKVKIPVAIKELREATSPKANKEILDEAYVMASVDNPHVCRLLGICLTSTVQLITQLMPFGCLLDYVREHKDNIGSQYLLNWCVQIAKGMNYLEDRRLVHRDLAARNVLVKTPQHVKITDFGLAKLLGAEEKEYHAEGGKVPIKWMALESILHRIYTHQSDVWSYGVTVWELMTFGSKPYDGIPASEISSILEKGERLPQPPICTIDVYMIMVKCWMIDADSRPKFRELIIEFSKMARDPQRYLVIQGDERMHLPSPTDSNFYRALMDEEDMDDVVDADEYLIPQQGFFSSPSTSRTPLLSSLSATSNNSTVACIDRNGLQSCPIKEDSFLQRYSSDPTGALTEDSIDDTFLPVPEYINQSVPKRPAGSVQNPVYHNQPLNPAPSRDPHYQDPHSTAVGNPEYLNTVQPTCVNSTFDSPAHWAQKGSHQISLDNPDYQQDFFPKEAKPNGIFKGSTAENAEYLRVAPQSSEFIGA
T1 sequence (P01133 971-1023 partner limits assumed): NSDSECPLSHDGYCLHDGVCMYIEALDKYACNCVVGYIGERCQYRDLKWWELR

| IC50 | inhibition at 100 µM | SMILES |
| --- | --- | --- |
| 13 µM | – | COC(=O)c1ccc(CNC(=O)c2c(SSc3c(C(=O)NCc4ccc(C(=O)OC)cc4)c4ccccc4n3C)n(C)c3ccccc23)cc1 [Compound 110, 2,2'-dithiobis [N-(4'-carbomethoxy)benzyl 1-methylindolyl-3-carboxamide]] |
| – | 20% | COC(=O)c1ccccc1NC(=O)c1c(SSc2c(C(=O)Nc3ccccc3C(=O)OC)c3ccccc3n2C)n(C)c2ccccc12 [Compound 108, 2,2'-dithiobis [N-(2-carbomethoxy)phenyl-1-methylindolyl-3-carboxamide]] |
| 6.9 µM | – | Cn1c(SSc2c(C#N)c3ccccc3n2C)c(C#N)c2ccccc21 [Compound 120] |
| – | 60% | O=C(Nc1ccccc1)c1c(SSc2[nH]c3ccccc3c2C(=O)Nc2ccccc2)[nH]c2ccccc12 [Compound 126, 2,2'-dithiobis [N-phenylindolyl-3-carboxamide]] |
| 12 µM | – | Cn1c(SSc2c(C(=O)Nc3cccc(C(=O)O)c3)c3ccccc3n2C)c(C(=O)Nc2cccc(C(=O)O)c2)c2ccccc21 [Compound 107, 2,2'-dithiobis[N-(3-carboxy)phenyl-1-methylindolyl-3-carboxamide]] |
| 8.3 µM | – | Cn1c(SSc2c(CCCC(=O)O)c3ccccc3n2C)c(CCCC(=O)O)c2ccccc21 [Compound 66] |
| – | 20% | COC(=O)c1ccc(NC(=O)c2c(SSc3c(C(=O)Nc4ccc(C(=O)OC)cc4)c4ccccc4n3C)n(C)c3ccccc23)cc1 [Compound 104, 2,2'-dithiobis [N-(4'-carbomethoxy)phenyl-1-methylindolyl-3-carboxamide]] |
| – | 78% | O=C(NCc1ccccc1)c1c(SSc2[nH]c3ccccc3c2C(=O)NCc2ccccc2)[nH]c2ccccc12 [Compound 125, 2,2'-dithiobis [N-benzylindolyl-3-carboxamide]] |
| – | 34% | COC(=O)c1cccc(NC(=O)c2c(SSc3c(C(=O)Nc4cccc(C(=O)OC)c4)c4ccccc4n3C)n(C)c3ccccc23)c1 [Compound 106, 2,2'-dithiobis [N-(3'-carbomethoxy)phenyl-1-methylindolyl-3-carboxamide]] |

Second part, the compound before the results:

| SMILES | IC50 | inhibition at 100 µM |
| --- | --- | --- |
| O=C(CCC1C(=S)Nc2ccccc21)NCc1ccccc1 (stereo not shown) [Compound 13, N-benzyl 3-(2-thioxo-3-indolinyl) propanamide] | – | 43% |
| CC(=O)NC(Cc1c(SSc2[nH]c3ccccc3c2CC(NC(C)=O)C(=O)NCc2ccccc2)[nH]c2ccccc12)C(=O)NCc1ccccc1 (racemic) [Compound 60] | – | 53% |
| Cc1cccc2c(CCC(=O)O)c(SSc3[nH]c4c(C)cccc4c3CCC(=O)O)[nH]c12 [Compound 45, bis[7-methylindolyl-3-propanoic acid-(2)] disulfide] | 1.6 µM | – |
| CN1C(=S)C(CCCC(=O)O)c2ccccc21 (stereo not shown) [Compound 16, 4-(1-methyl-2-thioxo-3-indolyl) butanoic acid] | 23 µM | – |
| O=C(O)CCCc1c(SSc2[nH]c3ccccc3c2CCCC(=O)O)[nH]c2ccccc12 [Compound 65, bis[indolyl-3-butanoic acid-(2)]disulfide] | 17.8 µM | – |
| CC(=O)OC(Cc1c(SSc2[nH]c3ccccc3c2CC(OC(C)=O)C(=O)NCc2ccccc2)[nH]c2ccccc12)C(=O)NCc1ccccc1 (stereo not shown) [Compound 63] | 60 µM | – |
| CCOC(=O)CC1C(=S)N(C)c2ccccc21 (stereo not shown) [Compound 5, ethyl 2-(1-methyl-2-thioxo-3-indolinyl)acetate] | – | 4% |
| COC(=O)CCC1C(=S)N(C)c2ccccc21 (stereo not shown) [Compound 11, methyl 3-(1-methyl-2-thioxo-3-indolinyl)propanoate] | – | 24% |
| O=C(CCc1c(SSc2[nH]c3ccccc3c2CCC(=O)NCc2ccc(C(=O)O)c(O)c2)[nH]c2ccccc12)NCc1ccc(C(=O)O)c(O)c1 [Compound 58] | – | 68% |
| CC(=O)Oc1cccc2c(C(=O)Nc3ccccc3)c(SSc3c(C(=O)Nc4ccccc4)c4cccc(OC(C)=O)c4n3C)n(C)c12 [Compound 95, 2,2'-dithiobis[N-phenyl-7-acetoxy-1-methylindolyl-3-carboxamide]] | 9.4 µM | – |
